ChEMBL document CHEMBL1201862, “PubChem BioAssay data set” (2004)
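Grown in 96-well plates, cells were treated for 48 hours with each compound at five concentrations. Insufficient inhibition: endpoint recorded as highest concentration tested. Abbreviation: GI50, concentration required for 50% inhibition of growth.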 Activity calls are given as the source filed them. Rule as the data show it: active = GI50 up to about 1.1 µM and inactive = higher.

Assays:
Assay in all cases: NCI-60 cell line screen, 48 h
Malme-3M = tested on: Malme-3M
MDA-MB-231 = tested on: MDA-MB-231
HOP-92 = tested on: HOP-92
A498 = tested on: A498
SK-MEL-5 = tested on: SK-MEL-5
SN12C = tested on: SN12C
OVCAR-5 = tested on: OVCAR-5
NCI-H522 = tested on: NCI-H522
SK-MEL-2 = tested on: SK-MEL-2
HCT-15 = tested on: HCT-15
UACC-62 = tested on: UACC-62
A549 = tested on: A549
SF-295 = tested on: SF-295
SNB-75 = tested on: SNB-75
IGROV-1 = tested on: IGROV-1
COLO 205 = tested on: COLO 205
CCRF-CEM = tested on: CCRF-CEM
K562 = tested on: K562
786-0 = tested on: 786-0
ACHN = tested on: ACHN

SMILES	GI50 (Malme-3M)	GI50 (MDA-MB-231)	GI50 (HOP-92)	GI50 (A498)	GI50 (SK-MEL-5)	GI50 (SN12C)	GI50 (OVCAR-5)	GI50 (NCI-H522)	GI50 (SK-MEL-2)	GI50 (HCT-15) [µM]	GI50 (UACC-62)	GI50 (A549)	GI50 (SF-295)	GI50 (SNB-75)	GI50 (IGROV-1)	GI50 (COLO 205)	GI50 (CCRF-CEM)	GI50 (K562)	GI50 (786-0)	GI50 (ACHN)
C=C1[C@@H](C)[C@H]2[C@H](Cc3ccccc3)NC(=O)[C@]23OC(=O)/C=C/[C@H](O)CCC[C@@H](C)C/C=C/[C@H]3[C@@H]1O	16.3 µM (inactive)	5.31 µM (inactive)	0.436 µM (active)	1.83 µM (inactive)	9.53 µM (inactive)	3.87 µM (inactive)	32.2 µM (inactive)	9.23 µM (inactive)	24.2 µM (inactive)	0.619	22.8 µM (inactive)	2.85 µM (inactive)	0.979 µM (active)	0.0748 µM (active)	6.59 µM (inactive)	0.713 µM (active)	2.37 µM (inactive)	9.18 µM (inactive)	7.62 µM (inactive)	4.4 µM (inactive)
N=C(N)NS(=O)(=O)c1ccc(NC(=O)c2ccc3nc4ccccc4c(Nc4ccc(S(=O)(=O)N=C(N)N)cc4)c3c2)cc1	> 100 µM (inactive)	> 100 µM (inactive)	> 100 µM (inactive)	> 100 µM (inactive)	> 100 µM (inactive)	> 100 µM (inactive)	> 100 µM (inactive)	> 100 µM (inactive)	> 100 µM (inactive)	> 100	30.1 µM (inactive)	> 100 µM (inactive)	> 100 µM (inactive)	> 100 µM (inactive)	> 100 µM (inactive)	> 100 µM (inactive)	> 100 µM (inactive)	> 100 µM (inactive)	> 100 µM (inactive)	> 100 µM (inactive)
CC(C)(C)c1cc(C(C)(C)C)c2c(c1O)OC(=O)CS2	20.8 µM (inactive)	16.2 µM (inactive)	9.59 µM (inactive)	13 µM (inactive)	2.88 µM (inactive)	5.79 µM (inactive)	5.85 µM (inactive)	4.06 µM (inactive)	6.93 µM (inactive)	3.66	2.2 µM (inactive)	3.59 µM (inactive)	4.26 µM (inactive)	1.15 µM (inactive)	7.1 µM (inactive)	2.99 µM (inactive)	4.17 µM (inactive)	3.16 µM (inactive)	6.07 µM (inactive)	3.96 µM (inactive)
O=C(/C=C/NC(=O)OCc1ccccc1)OCc1ccccc1	> 100 µM (inactive)	28.1 µM (inactive)	41.6 µM (inactive)	> 100 µM (inactive)	> 100 µM (inactive)	> 100 µM (inactive)	> 100 µM (inactive)	> 100 µM (inactive)	> 100 µM (inactive)	> 100	> 100 µM (inactive)	> 100 µM (inactive)	> 100 µM (inactive)	32.7 µM (inactive)	> 100 µM (inactive)	> 100 µM (inactive)	> 100 µM (inactive)	> 100 µM (inactive)	> 100 µM (inactive)	> 100 µM (inactive)
CN(C)CCCNc1ccc2nnn3c4ccc([N+](=O)[O-])cc4c(=O)c1c23	3.56 µM (inactive)	0.274 µM (active)	1.57 µM (inactive)	2.26 µM (inactive)	1.7 µM (inactive)	0.695 µM (active)	1.99 µM (inactive)	1.63 µM (inactive)	3.12 µM (inactive)	0.916	4.33 µM (inactive)	0.721 µM (active)	1.42 µM (inactive)	1.51 µM (inactive)	1.95 µM (inactive)	0.834 µM (active)	0.785 µM (active)	0.589 µM (active)	0.624 µM (active)	0.542 µM (active)
Cc1c(-c2cnccn2)ssc1=S [OLTIPRAZ]	> 100 µM (inactive)	63.2 µM (inactive)	26.8 µM (inactive)	34.8 µM (inactive)	36.3 µM (inactive)	> 100 µM (inactive)	> 100 µM (inactive)	34.8 µM (inactive)	53.3 µM (inactive)	62.8	76.2 µM (inactive)	98.9 µM (inactive)	57.4 µM (inactive)	18.5 µM (inactive)	> 100 µM (inactive)	> 100 µM (inactive)	60.3 µM (inactive)	> 100 µM (inactive)	40.4 µM (inactive)	44 µM (inactive)
